{"source": "patent US12037354B2", "about": "“Cyclic pantetheine derivatives and uses thereof” (VectivBio Comet AG, priority 2018, dated 2024)", "tested_on": "Pkd1-/- mouse inner medullary collecting duct cells (mIMRFNPKD 5E4)", "assay": "mPKD 3D cyst swelling assay (forskolin-induced), Example 818", "type": "cell-based", "conditions": "50 uM, after 72 hours of forskolin exposure", "description": "Cell model and control compounds. mIMCD3 WT cells were obtained via ATCC and modified to create the mIMRFNPKD 5E4 cell line, which has a CRISPR-Cas mediated knockout for Pkd1 as described SLAS Discov. 2017 September; 22(8):974-984. doi: 10.1177/2472555217716056. Cells were cultured in DMEM/F12 (Sigma)+10% FBS (Sigma)+0.5% Pen/Strep (Gibco)+1% GluMax (Gibco). Control compounds used were forskolin (Calbiochem, 344282), Rapamycin (Selleckchem, S1039) and Staurosporin (Selleckchem, S1421).\nThe 3D mouse cyst swelling assay was performed with Pkd1^−/− mouse inner medullary collecting duct cells (mIMRFNPKD 5E4). The cyst swelling protocol that was used was described previously (SLAS Discov. 2017 September; 22(8):974-984. doi: 10.1177/2472555217716056), with further optimization.\n3D culture and compound exposure. mIMRFNPKD 5E4 cells were mixed with Cyst-Gel (OcellO BV). 15 μL of cell-gel mix was pipetted to 384-well plates (Greiner μClear, Greiner Bio-One B.V.) using a CyBio Felix 96/60 robotic liquid dispenser (Analyik Jena AG). […]\nImaging and image analysis. […] Cyst area was determined by calculating for the area in px of each object in every in-focus plain. […] (N represented is number of wells) Fraction of apoptotic nuclei as an indicator of toxicity was calculated as the amount of nuclei without actin signal relative to the total amount of nuclei, both as count-measurements. […]"}
{"smiles": "COC(=O)/C=C/C(=O)SCCNC(=O)CCNC(=O)[C@@H]1OP(=O)(O)OCC1(C)C", "note": "[Compound 21]", "values": [{"measurement": "% prevention of forskolin-induced cyst swelling", "value": "≥10", "unit": "%"}]}
